Results: BindingDB's records for doi:10.1021/jm800245z (Merck Research Laboratories, 2008)

Molecular target: Gag-Pol polyprotein (Human immunodeficiency virus type 1 group M subtype B (isolate HXB2), UniProt P04585)
Experiment: Microtiter Plate Assay for Strand Transfer
Settings: pH 7.8; 37 °C
Description: The microtiter plate assay for stand transfer was performed with an immobilized donor substrate and a target substrate biotinylated at the 3-prime end of each DNA strand. Integrase was first assembled with immobilized LTR oligonucleotides for 30 min. Inhibitors were added after assembly and washings. For the strand transfer reaction, it was initiated with the addition of the biotinylated target substrate. Strand transfer reaction mixtures were incubated for additional 30 min, and the strand transfer products were detected by using alkaline phosphatase-conjugated avidin (Boehringer Mannheim, Indianapolis, Ind.).

Work on `CNC(=O)c1nc(C(C)(C)NC(=O)C(=O)N(C)C)n(C)c(=O)c1O` [N-{2-[5-hydroxy-1-methyl-4-(methylcarbamoyl)-6-oxo-1,6-dihydropyrimidin-2-yl]propan-2-yl}-N',N'-dimethylethanediamide] yielded an IC50 greater than 5 µM.
